# From paper PMC4832243, “Discovery of Potent VEGFR-2 Inhibitors based on Furopyrimidine and Thienopyrimidne Scaffolds as Cancer Targeting Agents” (Scientific Reports, 2016)
# Test system: Ehrlich ascites carcinoma (EAC) solid tumor
# Assay: In vivo anticancer activity, EAC solid tumor murine model
# Set-up: species or system Swiss albino mice
# Details: for TGI (%): once daily for 8 consecutive days; for Histopathological examination of EAC tumor sections (necrosis): hematoxylin-eosin, 40x
# Description: Animals. Female Swiss albino mice weighing 15–20 g were used in the present study. They were obtained from the animal breeding laboratory, National Cancer Institute (NCI), Cairo University, Egypt. Animals were kept in our animal facility, faculty of pharmacy, Ain Shams university at 25 ± 2 °C and a relative humidity of 40–45% with alternative day and night cycles of 12 h each. Animals had free access to pellet food and water ad libitum. Standard diet pellets (El-Nasr, Abu Zaabal, Egypt) contained not less than 20% protein, 5% fiber, 3.5% fat, 6.5% ash and a vitamin mixture. Animal care and experiments were conducted in accordance with the protocols approved by the Ethics Research Committee, Faculty of Pharmacy, Ain Shams University, following the Institutional Animal Care and Use Committee guidelines.
# Tumor cells preparation and transplantation. Ehrlich ascites carcinoma (EAC) cells were obtained from NCI, Cairo University, Egypt. EAC cells were maintained in the ascitic form in Swiss albino mice by intraperitoneal transplantation of each mouse every 10 days. Ascitic fluid was drawn from tumor-bearing mice at the log phase (7–8th day of tumor bearing) of the tumor cells. The freshly drawn fluid was diluted with ice-cold sterile isotonic saline. 200 μl tumor cell suspension containing 2 × 10^6 tumor cells were then subcutaneously injected in each mouse.
# Experimental design. Swiss albino mice were divided into six groups (n = 6 per group).
# Evaluation of effectiveness. Tumor growth curve was drawn according to the change in tumor volume from first day of treatment (day 0) till day 7. Longest and shortest diameters of the solid tumor were monitored using a digital vernier caliper. Tumor volume (TV) of each animal was calculated using the following formula: […]
# Tumor growth inhibition (TGI) was calculated as follows.
# RTV = (Tumor volume at the day of measurement)/Tumor volume at the initial day.
# Histopathological Examination
# thickness by slidge microtome.
# graded ethanol solutions.
compound,measurement,setting,value
Cc1cccc(NC(=O)Nc2ccc(Oc3ncnc4sc5c(c34)CCCC5)cc2)c1 [Compound 21b],Tumor Index,"5 mg/kg/day po, 8 consecutive days, mean ± SD, n = 6",0.041 ± 0.016
same,TGI (%),5 mg/kg/day po,70.7%
same,Histopathological examination of EAC tumor sections (necrosis),5 mg/kg,mild focal necrosis
same,TGI (%),10 mg/kg/day po,86.4%
same,Histopathological examination of EAC tumor sections (necrosis),10 mg/kg,moderate diffuse necrosis
